Assay results from patent US5939414A, “Benzodiazepine hydrazide derivatives as inhibitors of HIV integrase” (Merck & Co., Inc., priority 1997, dated 1999).

Columns and labels:
HIV-1 integrase [1] = target: T1, HIV-1 integrase (Human immunodeficiency virus type 1 group M subtype B, UniProt P04585); assay: biochemical; set-up: HIV-1 integrase
Procedure: HIV Integrase Assay: Substrate Cleavage
An assay for trimming of 3' end of HIV long terminal repeat terminus by HIV-1 integrase was conducted according to LaFemina, E. R. et al., J. Virol. 10, 5624 (1991), herein incorporated by reference for these purposes. To assay inhibition of HIV integrase substrate cleavage, the reaction was conducted with inhibitor having various concentrations in the range of 0.1 to 100 μM.

HIV-1 integrase [2] = target: T1, HIV-1 integrase; assay: Assembly of HIV-1 integrase as catalytically active complex; type: biochemical; set-up: HIV-1 Integrase
Procedure: Assay for Assembly of HIV-1 Integrase as Catalytically Active Complex
Inhibition of assembly of HIV-1 Integrase was conducted according to Wolfe, A. L. et al., J. Virol. 70, 1424 (1996), herein incorporated by reference for these purposes.

HIV integrase = target: T2, HIV integrase (Human immunodeficiency virus type 1 group M subtype B, UniProt P04585); assay: Inhibition of strand transfer by HIV integrase; type: biochemical
T2 construct: HIV Integrase
Procedure: Assay for Inhibition of Strand Transfer by HIV Integrase
Inhibition of strand transfer was conducted according to Hazuda, D. J. et al. Nucleic Acids Res., 22, 1121 (1994), hereby incorporated by reference for these purposes.

Row | SMILES | IC50 (HIV-1 integrase [1]) [µM] | IC50 (HIV-1 integrase [2]) [µM] | IC50 (HIV integrase) [µM]
1 | Cc1[nH]cnc1C(=O)NNC1=Nc2ccc(Br)cc2C(c2ccccc2Cl)=NC1 [Compound VII] | 2 | 10 | 5
2 | O=C(NNC1=Nc2ccccc2C(c2ccccc2)=NC1)c1cnccn1 [Compound VI] | 2 | 5 | 2 to 3
